# ± gives the standard deviation of the reports.
row,SMILES,glass transition temperature [°C]
1,*Nc1ccc(Br)cc1-c1ccc(NC(=O)c2cccc(C(*)=O)c2)cc1 (repeat unit),253.00
2,*C(=O)Nc1ccc(Oc2ccc(C3(c4ccc(Oc5ccc(NC(=O)c6ccc7c(c6)C(=O)N(c6ccc(Oc8cccc(Oc9ccc(N%10C(=O)c%11ccc(*)cc%11C%10=O)cc9)c8)cc6)C7=O)cc5)cc4)NC(=O)c4ccccc43)cc2)cc1 (repeat unit),267.00
3,*C/C=C/COC(=O)C(Cc1ccccc1)NC(=O)/C=C/C(=O)NC(Cc1ccccc1)C(=O)O* (repeat unit),109.00
4,*CCCCCCC(=O)Oc1ccc(-c2ccc(OC(=O)c3ccc4c(c3)C(=O)N(*)C4=O)cc2)cc1 (repeat unit),107.00
5,*C1C(=O)N(CCCOc2ccc(-c3ccc(C#N)cc3)cc2)C(=O)C1* (repeat unit),130.00
6,*Nc1ccc(C2(c3ccc(NC(=O)c4ccc(C(*)=O)cc4)cc3)c3ccccc3-c3ccccc32)cc1 (repeat unit),319.00
7,*CCCCCCOP(=O)(/N=N/c1ccc(Oc2ccc(/N=N/P(=O)(O*)OC)cc2)cc1)OC (repeat unit),25.00
8,*c1ccc(-c2ccc(N(c3ccc(OC)cc3)c3ccc4ccc(N(*)c5ccc(OC)cc5)cc4c3)cc2)cc1 (repeat unit),232.00
9,*CC(OCC)C1C(=O)OC(=O)C1* (repeat unit),146.00
10,*c1ccc(Oc2ccc(C3(c4ccc(Oc5ccc(N6C(=O)c7ccc(Oc8ccc(C9(c%10ccc(Oc%11ccc%12c(c%11)C(=O)N(*)C%12=O)cc%10)CCCCCCCCCCC9)cc8)cc7C6=O)cc5)cc4)CC4CCC3C4)cc2)cc1 (repeat unit),259.00
11,*Nc1ccc(*)cc1OCCCCCCCCCCOc1ccc(C2CCC(CCCCC)CC2)cc1 (repeat unit),64.50
12,*CC1(*)OCC(c2ccccc2)O1 (repeat unit),75.00
13,*=Nc1ccc(Oc2ccc(C(c3ccc(Oc4ccc(/N=C5/OC(=O)c6cc7c(cc65)C(=*)OC7=O)cc4)cc3)(C(F)(F)F)C(F)(F)F)cc2)cc1 (repeat unit),287.00
14,*O[Si](*)(C)CCCOc1ccc(C(=O)Oc2ccc(-c3ccc(OC(=O)c4cc(OCCCCCCCCCCCC)c(OCCCCCCCCCCCC)c(OCCCCCCCCCCCC)c4)cc3)cc2)cc1 (repeat unit),48.00
15,*c1ccc(Nc2ccc(C(c3ccc(Nc4ccc(S(*)(=O)=O)cc4)cc3)(C(F)(F)F)C(F)(F)F)cc2)cc1 (repeat unit),145.00
16,*Cc1cccc(C[n+]2ccc(-c3cc[n+](*)cc3)cc2)c1 (repeat unit),128.00
17,*CC(*)c1cc(-c2ccc(C(=O)OC(C)CC)cc2)ccc1-c1ccc(C(=O)OC(C)CC)cc1 (repeat unit),212.50
18,*Oc1ccc(C(C)(C)c2ccc(Oc3cncc(*)n3)cc2)cc1 (repeat unit),145.00
19,*CC(*)CC1CCCCC1 (repeat unit),75.00
20,*CCCCCOC(=O)OCCCCCN1C(=O)c2ccc(-c3ccc4c(c3)C(=O)N(*)C4=O)cc2C1=O (repeat unit),84.00
21,*C(=O)c1ccc2nc(-c3ccc(-c4nc5ccc(*)cc5nc4-c4ccccc4)cc3)c(-c3ccccc3)nc2c1 (repeat unit),325.00
22,*Oc1ccc(NC(=O)NC2CC(C)(C)CC(C)(CNC(=O)Nc3ccc(*)cc3)C2)cc1 (repeat unit),274.00

row,SMILES,glass transition temperature [°C]
1,*CC(CC(*)(C#N)C#N)c1ccc(CCl)cc1 (repeat unit),180.00
2,*Nc1cccc(NC(=O)c2cc(NC(=O)C34CC5CC(CC(C5)C3)C4)cc(C(*)=O)c2)c1 (repeat unit),365.00
3,*CCC(C)C(*)(C)C(=O)OC (repeat unit),45.00
4,*CC(*)c1cccc(C)n1 (repeat unit),92.00
5,*CC(*)c1ccc(CCCCCC)cc1 (repeat unit),-27.00
6,*CCCCCCN1C(=O)C(=O)N(c2ccc(C)c(N3C(=O)C(=O)N(*)C3=O)c2)C1=O (repeat unit),181.50
7,*c1cccc(P(=O)(c2ccccc2)c2cccc(-n3c(=O)c4cc5c(=O)n(*)c(=O)c5c(-c5ccc(C(F)(F)F)cc5)c4c3=O)c2)c1 (repeat unit),321.00
8,*CCN(*)C(=O)c1cccc(F)c1F (repeat unit),110.00
9,*CCCCCCCCCCOc1ccc(/N=C/c2ccc(/C=N/c3ccc(O*)cc3C)cc2)c(C)c1 (repeat unit),77.60
10,*Oc1ccc(S(=O)(=O)c2ccc(*)cc2)c2ccccc12 (repeat unit),238.00
11,*CCC(c1ccccc1)C(*)c1ccccc1 (repeat unit),104.30
12,*c1ccc(-c2ccc3c(c2)C(CCCCCCCC)(CCCCCCCC)c2cc(-c4ccc(N(*)c5ccc(N(c6ccc(C(C)(C)c7ccccc7)cc6)c6ccc(C(C)(C)c7ccccc7)cc6)cc5)cc4)ccc2-3)cc1 (repeat unit),137.00
13,*OC(COC(=O)c1ccc(C(*)=O)c(OC)c1)COc1ccc(/N=N/c2ccc(C#N)cc2)cc1 (repeat unit),120.00
14,*C1C(=O)N(C(C)(C)C)C(=O)C1* (repeat unit),195.00
15,*/C=C/c1cc(OCC(CC)CCCC)c(/C=C/c2ccc3c4ccc(*)cc4n(CC(CC)CCCC)c3c2)cc1OCC(CC)CCCC (repeat unit),61.00
16,*CCc1cc(Cl)c(*)c(Cl)c1 (repeat unit),110.00
17,*CC(*)(C)C(=O)NC(C)c1cccc2ccccc12 (repeat unit),171.00
18,*O[Si](C)(C)c1ccc([Si](*)(C)C)cc1 (repeat unit),-18.00
19,*CC(*)c1ccc(B(Oc2ccc(Cl)c3cccnc23)c2ccc(C(C)(C)C)cc2)cc1 (repeat unit),238.00
20,*CNC(=O)OCC(OC(=O)NCc1ccc(C(CCC)c2ccc(*)o2)o1)c1ccco1 (repeat unit),43.00
21,*C(=O)Nc1ccc(Oc2ccc(Oc3ccc(NC(=O)c4ccc5c(c4)C(=O)N(c4ccc(Oc6cccc7c(Oc8ccc(N9C(=O)c%10ccc(*)cc%10C9=O)cc8)cccc67)cc4)C5=O)cc3)cc2)cc1 (repeat unit),285.00
22,*Oc1ccc(C2(c3ccc(OC(=O)CCC(*)=O)cc3)c3cc(OC)ccc3-c3ccc([N+](=O)[O-])cc32)cc1 (repeat unit),230.00

# Second part, the molecule after the results:
row,glass transition temperature [°C],SMILES
1,185.00,*Nc1cccc2c(NC(=O)Nc3cc(NC(*)=O)cc(C(=O)Nc4cccc5c4C(=O)c4ccccc4C5=O)c3)cccc12 (repeat unit)
2,132.00,*c1cccc(OCCCCCCCCCOc2cccc(N3C(=O)c4ccc(-c5ccc6c(c5)C(=O)N(*)C6=O)cc4C3=O)c2)c1 (repeat unit)
3,254.8,*c1ccc(Sc2ccc3c(c2)Sc2ccc(Sc4ccc(-n5c(=O)c6cc7c(=O)n(*)c(=O)c7cc6c5=O)cc4)cc2S3)cc1 (repeat unit)
4,269.00,*C(=O)Nc1c(CC)cc(Cc2cc(CC)c(NC(=O)c3ccc4c(c3)C(=O)N(c3ccc(/N=N/c5ccc(C)cc5)c(N5C(=O)c6ccc(*)cc6C5=O)c3)C4=O)c(CC)c2)cc1CC (repeat unit)
5,118.00,*CCOCCOCCN1C(=O)c2ccc(C(=O)Oc3ccc(C(C)(C)c4ccc(OC(=O)c5ccc6c(c5)C(=O)N(*)C6=O)cc4)cc3)cc2C1=O (repeat unit)
6,276.50,*c1ccc2c(c1)C(=O)N(c1ccc(Oc3ccc(S(=O)(=O)c4ccc(Oc5ccc(N6C(=O)c7ccc(C(*)(C(F)(F)F)C(F)(F)F)cc7C6=O)cc5)cc4)cc3)cc1)C2=O (repeat unit)
7,215.00,*c1ccc(C(c2ccc(N(*)c3ccc(C)cc3)cc2)c2ccc([N+](=O)[O-])cc2)cc1 (repeat unit)
8,245.00,*c1ccc(Oc2ccc(C(=O)c3ccc(Oc4ccc(C5(*)c6ccccc6C(=O)N5C)cc4)cc3)cc2)cc1 (repeat unit)
9,326.00,*c1ccc(Oc2cccc(Oc3ccc(-n4c(=O)c5cc6c(=O)n(*)c(=O)c6cc5c4=O)cc3)c2)cc1 (repeat unit)
10,185.00,*c1ccc(Oc2ccccc2Oc2ccc(N3C(=O)c4ccc(Oc5ccccc5Oc5ccc6c(c5)C(=O)N(*)C6=O)cc4C3=O)cc2C(F)(F)F)c(C(F)(F)F)c1 (repeat unit)
11,360.00,*c1ccc(-c2cc(-c3ccc(OCCCC#N)cc3)cc(-c3ccc(N4C(=O)c5ccc(-c6ccc7c(c6)C(=O)N(*)C7=O)cc5C4=O)cc3)n2)cc1 (repeat unit)
12,185.00,*Oc1ccc(C(C)(C)c2ccc(Oc3ccc(C(=O)c4ccc5cc(C(=O)c6ccc(*)cc6)ccc5c4)cc3)cc2)cc1 (repeat unit)
13,284.00,*c1ccc(C(=O)Nc2ccc(-c3ccccc3NC(=O)c3ccc(S(*)(=O)=O)cc3)cc2)cc1 (repeat unit)
14,286.00 ± 34,*c1ccc(S(=O)(=O)c2ccc(N3C(=O)c4ccc(Oc5ccc6c(c5)C(=O)N(*)C6=O)cc4C3=O)cc2)cc1 (repeat unit)
15,201.00,*c1ccc(Oc2ccc(S(=O)(=O)c3ccc(Oc4ccc(N5C(=O)c6ccc(Oc7cccc(Oc8ccc9c(c8)C(=O)N(*)C9=O)c7)cc6C5=O)cc4)cc3)cc2)cc1 (repeat unit)
16,271.00,*c1ccc(Sc2cc3c(cc2Sc2ccc(N4C(=O)c5ccc(Oc6ccc7c(c6)C(=O)N(*)C7=O)cc5C4=O)cc2)C(=O)N(c2ccc(CC)cc2)C3=O)cc1 (repeat unit)
17,194.00,*Oc1ccc(/C(=C/c2cc(OC)c(/C=C(/c3ccc(*)cc3)c3ccc(C(F)(F)F)cc3)cc2OC)c2ccc(C(F)(F)F)cc2)cc1 (repeat unit)
18,240.00,*C(=O)Nc1cccc(NC(=O)c2ccc(N3C(=O)c4ccc(*)cc4C3=O)cc2)c1 (repeat unit)
19,294.50,*c1ccc(S(=O)(=O)c2ccc(-n3nc(-c4ccccc4)c4ccc(Oc5ccc6c(-c7ccccc7)nn(*)c(=O)c6c5)cc4c3=O)cc2)cc1 (repeat unit)

# From the PolyMetriX glass transition set
